Tests used:
Type in all cases: cell-based
HCT 116 = assay: Cytotoxic activity, MTS assay, HCT 116; details: Homo sapiens, HCT 116, 96 hours
Method: (§1) This study aims to determine the cytotoxic activity of a compound of the invention against a panel of ten human cancer cell lines.
(§2) Paclitaxel (Taxol®, ref. T1912, Sigma) is used as positive control.
(§3) Human tumor cells were plated at 5,000 to 10,000 cells per well, with 24 h incubation time before treatment. Tumor cell lines were incubated for 96 hours with 10 concentrations, in ¼ dilution steps, of compound of the invention (from 3.8×10^−10 to 1.0×10^−4 M) and Paclitaxel (from 3.8×10^−13 to 1.0×10^−7 M). Experiments were repeated three times, each concentration being issued from quadruplicate. Control cells were treated with corresponding vehicle alone. At the end of the treatments, the cytotoxic activity was evaluated by a MTS assay (Baltrop J A et al, Bioorg. Med. Chem. Lett. 1991, 611-4).

PANC-1 = assay: Cytotoxic activity, MTS assay, PANC-1; details: Homo sapiens, PANC-1, 96 hours
Method: as §1, §2, §3

A375 = assay: Cytotoxic activity, MTS assay, A375; details: Homo sapiens, A-375, A375, 96 hours
Method: as §1, §2, §3

K-562 = assay: Cytotoxic activity, MTS assay, K-562; details: Homo sapiens, K562, K-562, 96 hours
Method: as §1, §2, §3

PC-3 = assay: Cytotoxic activity, MTS assay, PC-3; details: Homo sapiens, PC-3, 96 hours
Method: as §1, §2, §3

U-87 MG = assay: Cytotoxic activity, MTS assay, U-87 MG; details: Homo sapiens, 96 hours
Method: as §1, §2, §3

HL-60 = assay: Cytotoxic activity, MTS assay, HL-60; details: Homo sapiens, HL-60, 96 hours
Method: as §1, §2, §3

U-937 = assay: Cytotoxic activity, MTS assay, U-937; details: Homo sapiens, U-937, 96 hours
Method: as §1, §2, §3

A2780 = assay: Cytotoxic activity, MTS assay, A2780; details: Homo sapiens, A2780, 96 hours
Method: as §1, §2, §3

HT-29 = assay: Cytotoxic activity, MTS assay, HT-29; details: Homo sapiens, HT-29, 96 hours
Method: as §1, §2, §3

CC(=O)O[C@H]1C(=O)[C@@]2(C)[C@H]([C@H](OC(=O)c3ccccc3)[C@]3(O)C[C@H](OC(=O)[C@H](O)[C@@H](NC(=O)c4ccccc4)c4ccccc4)C(C)=C1C3(C)C)[C@]1(OC(C)=O)CO[C@@H]1C[C@@H]2O [Paclitaxel]
IC50 (HCT 116): 5.57 nM | IC50 (PANC-1): > 100 nM | IC50 (A375): 6.52 nM | IC50 (K-562): 7.6 nM | IC50 (PC-3): 8.8 nM | IC50 (U-87 MG): > 100 nM | IC50 (HL-60): 6.65 nM | IC50 (U-937): 5.29 nM | IC50 (A2780): 77 nM | IC50 (HT-29): 8.29 nM

Reference: patent US20090093476A1, “PYRROLO[1,2-A]QUINOXALINE DERIVATIVES AS ADENOSINE A3 RECEPTOR MODULATORS AND USES THEREOF” (FAUST PHARMACEUTICALS, priority 2005, published 2009)
